Test results published in patent publication US11753407B2, “Compounds for treating spinal muscular atrophy” (PTC Therapeutics, Inc., priority 2012, dated 2023).

Legend:
[1] = test system: SMN2 minigene mRNA (SMN2-A minigene) in HEK293H cells; experiment: SMN2 minigene mRNA splicing RT-qPCR assay in cultured cells; type: cell-based, human; settings: Homo sapiens, HEK293-H; concentration increasing full length SMN2 mRNA 1.5-fold relative to vehicle-treated cells; HEK293H cells with SMN2-A minigene, 24 hours, 7-point concentration data; read-out: EC1.5x for production of full length SMN2 mRNA
Description: The reverse transcription-quantitative PCR-based (RT-qPCR) assay is used to quantify the level of the full length SMN2 minigene mRNA containing SMN2 exon 7 in a HEK293H cell line stably transfected with said minigene and treated with a test compound.
Protocol. HEK293H cells stably transfected with the SMN2-A minigene construct described above (10,000 cells/well) are seeded in 200 μL of cell culture medium (DMEM plus 10% FBS, with 200 μg/mL hygromycin) in 96-well flat-bottom plates and the plate is immediately swirled to ensure proper dispersal of cells, forming an even monolayer of cells. Cells are allowed to attach for at least 4-6 hours. Test compounds are serially diluted 3.16-fold in 100% DMSO to generate a 7-point concentration curve. A solution of test compound (1 μL, 200× in DMSO) is added to each cell-containing well and the plate is incubated for 24 hours in a cell culture incubator (37° C., 5% CO2, 100% relative humidity). 2 replicates are prepared for each test compound concentration. The cells are then lysed in Cells-To-Ct lysis buffer and the lysate is stored at −80° C.
Primer SMN Forward A (SEQ ID NO. 1) hybridizes to a nucleotide sequence in exon 7 (nucleotide 22 to nucleotide 40), primer SMN Reverse A (SEQ ID NO. 2) hybridizes to a nucleotide sequence in the coding sequence of Firefly luciferase, SMN Probe A (SEQ ID NO. 3) hybridizes to a nucleotide sequence in exon 7 (nucleotide 50 to nucleotide 54) and exon 8 (nucleotide 1 to nucleotide 21). The combination of these three oligonucleotides detects only SMN1 or SMN2 minigenes (RT-qPCR) and will not detect endogenous SMN1 or SMN2 genes.
The SMN forward and reverse primers are used at final concentrations of 0.4 μM. The SMN probe is used at a final concentration of 0.15 μM. The GAPDH primers are used at final concentrations of 0.2 μM and the probe at 0.15 μM.
The SMN2-minigene GAPDH mix (15 μL total volume) is prepared by combining 7.5 μL of 2× RT-PCR buffer, 0.4 μL of 25× RT-PCR enzyme mix, 0.75 μL of 20× GAPDH primer-probe mix, 4.0075 μL of water, 2 μL of 10-fold diluted cell lysate, 0.06 μL of 100 μM SMN forward primer, 0.06 μL of 100 μM SMN reverse primer, and […].
PCR is carried out at the following temperatures for the indicated time: Step 1: 48° C. (15 min); Step 2: 95° C. (10 min); Step 3: 95° C. (15 sec); Step 4: 60° C. (1 min); then repeat Steps 3 and 4 for a total of 40 cycles.
Each reaction mixture contains both SMN2-A minigene and GAPDH primers/probe sets (multiplex design), allowing simultaneous measurement of the levels of two transcripts.
Two SMN spliced products are generated from the SMN2 minigene. The first spliced product containing exon 7, corresponding to full length SMN2 mRNA, is referred to herein using the term “SMN2 minigene FL.” The second spliced product lacking exon 7 is referred to herein using the term “SMN2 minigene Δ7.”
The increase of SMN2 minigene FL mRNA relative to that in cells treated with vehicle control is determined from real-time PCR data using a modified ΔΔCt method (as described in Livak and Schmittgen, Methods, 2001, 25:402-8). The amplification efficiency (E) is calculated from the slope of the amplification curve for SMN2 minigene FL and GAPDH individually. The abundances of SMN2 minigene FL and GAPDH are then calculated as (1+E)^−Ct, where Ct is the threshold value for each amplicon. The abundance of SMN2 minigene FL is normalized to GAPDH abundance. The normalized SMN2 minigene FL abundance from test compound-treated samples is then divided by normalized SMN2 minigene FL abundance from vehicle-treated cells to determine the level of SMN2 FL mRNA relative to vehicle control.
For compounds of Formula (I) or a form thereof disclosed herein, Table 4 provides the […] for production of full length SMN2 mRNA that was obtained from the 7-point concentration data generated for each test compound according to the procedure of Biological Example 2. […]

[2] = test system: Smn protein in SMA patient fibroblast cells (GM03813); experiment: Smn protein assay in cultured cells (SMN HTRF); type: cell-based, human; settings: SMA patient fibroblast cells, 48 hours; for maximum fold (Fold) increase of Smn protein: 7-point concentration data, fold relative to vehicle control; for EC1.5x for Smn protein expression: 7-point concentration curve, SMN HTRF, concentration producing 1.5 times Smn protein vs DMSO vehicle control
Description: The SMN HTRF (homogeneous time resolved fluorescence) assay is used to quantify the level of Smn protein in SMA patient fibroblast cells treated with test compounds.
Protocol. Cells are thawed and cultured in DMEM-10% FBS for 72 hours. Cells are trypsinized, counted and re-suspended to a concentration of 25,000 cells/mL in DMEM-10% FBS. The cell suspension is plated at 5,000 cells per well in a 96 well microtiter plate and incubated for 3 to 5 hours. […] Test compounds are serially diluted 3.16-fold in 100% DMSO to generate a 7-point concentration curve. 1 μL of test compound solution is transferred to cell-containing wells and cells are incubated for 48 hours in a cell culture incubator (37° C., 5% CO2, 100% relative humidity). Triplicate samples are set up for each test compound concentration. After 48 hours, the supernatant is removed from the wells and 25 μL of the RIPA lysis buffer, containing protease inhibitors, is added to the wells and incubated with shaking at room temperature for 1 hour. 25 μL of the diluent is added and then 35 μL of the resulting lysate is transferred to a 384-well plate, where each well contains 5 μL of the antibody solution (1:100 dilution of anti-SMN d2 and anti-SMN kryptate in SMN reconstitution buffer). The plate is centrifuged for 1 minute to bring the solution to the bottom of the wells, then incubated overnight at room temperature. Fluorescence for each well of the plate at 665 nm and 620 nm is measured on an EnVision multilabel plate reader (Perkin-Elmer).
The normalized fluorescence signal is calculated for each sample, Blank and vehicle control well by dividing the signal at 665 nm by the signal at 620 nm. Normalizing the signal accounts for possible fluorescence quenching due to the matrix effect of the lysate. The ΔF value (a measurement of Smn protein abundance as a percent value) for each sample well is calculated by subtracting the normalized average fluorescence for the Blank control wells from the normalized fluorescence for each sample well, then dividing this difference by the normalized average fluorescence for the Blank control wells and multiplying the resulting value by 100. The ΔF value for each sample well represents the Smn protein abundance from test compound-treated samples. The ΔF value for each sample well is divided by the ΔF value for the vehicle control wells to calculate the fold increase in Smn protein abundance relative to the vehicle control.
For compounds of Formula (I) or a form thereof disclosed herein, Table 9 provides the EC1.5× for Smn protein expression that was obtained from the 7-point concentration data generated for each test compound according to the procedure of Biological Example 7. The term “EC1.5× for Smn protein expression” is defined as that concentration of test compound that is effective in producing 1.5 times the amount of Smn protein in an SMA patient fibroblast cell compared to the amount produced from the DMSO vehicle control. An EC1.5× for Smn protein expression between >3 μM and ≤10 μM is indicated by one star (*), an EC1.5× between >1 μM and ≤3 μM is indicated by two stars (**), an EC1.5× between >0.3 μM and ≤1 μM is indicated by three stars (***) and an EC1.5x≤0.3 μM is indicated by four stars (****).
For compounds of Formula (I) or a form thereof disclosed herein, Table 10 provides the maximum fold (Fold) increase of Smn protein that was obtained from the 7-point concentration data generated for each test compound according to the procedure of Biological Example 7. A maximum fold increase of ≤1.2 is indicated by one star (*), a fold increase between >1.2 and ≤1.35 is indicated by two stars (**), a fold increase between >1.35 and ≤1.5 is indicated by three stars (***), a fold increase between >1.5 and ≤1.65 is indicated by four stars (****) and a fold increase >1.65 is indicated by five stars (*****).

| Compound | EC (1.5-fold increase) [1] | maximum fold (Fold) increase of Smn protein [2] | EC1.5x for Smn protein expression [2] |
| --- | --- | --- | --- |
| COc1ccc(-c2cc(=O)n3cc(N4CCCNCC4)ccc3n2)cc1OC [Compound 10, 7-(1,4-diazepan-1-yl)-2-(3,4-dimethoxyphenyl)-4H-pyrido[1,2-a]pyrimidin-4-one] | 1 to 3 µM | ** (a fold increase between >1.2 and ≤1.35 is indicated by two stars (**)) |  |
| COc1ccc(-c2cc(=O)n3cc(N4CCNC(C)(C)C4)ccc3n2)cc1 [Compound 17, 7-(3,3-dimethylpiperazin-1-yl)-2-(4-methoxyphenyl)-4H-pyrido[1,2-a]pyrimidin-4-one] | 1 to 3 µM | * (A maximum fold increase of ≤1.2 is indicated by one star (*)) |  |
| COc1cccc(-c2cc(=O)n3cc(N4CCCNCC4)ccc3n2)c1 [Compound 27, 7-(1,4-diazepan-1-yl)-2-(3-methoxyphenyl)-4H-pyrido[1,2-a]pyrimidin-4-one] | 3 to 30 µM | * (A maximum fold increase of ≤1.2 is indicated by one star (*)) |  |
| O=c1cc(-c2cc(F)c(O)c(F)c2)nc2ccc(N3CCNCC3)cn12 [Compound 71, 2-(3,5-difluoro-4-hydroxyphenyl)-7-(piperazin-1-yl)-4H-pyrido[1,2-a]pyrimidin-4-one] | 1 to 3 µM | **** (a fold increase between >1.5 and ≤1.65 is indicated by four stars (****)) | * (An EC1.5× for Smn protein expression between >3 μM and ≤10 μM is indicated by one star (*)) |
| O=c1cc(-c2cc(F)cc(C(F)(F)F)c2)nc2ccc(N3CCNCC3)cn12 [Compound 76, 2-[3-fluoro-5-(trifluoromethyl)phenyl]-7-(piperazin-1-yl)-4H-pyrido[1,2-a]pyrimidin-4-one] | 0.3 to 1 µM | ** (a fold increase between >1.2 and ≤1.35 is indicated by two stars (**)) |  |
| COc1ccc(-c2cc(=O)n3cc(N4CCNCC4)ccc3n2)cc1OC(F)F [Compound 99, 2-[3-(difluoromethoxy)-4-methoxyphenyl]-7-(piperazin-1-yl)-4H-pyrido[1,2-a]pyrimidin-4-one] | 0.3 to 1 µM | **** (a fold increase between >1.5 and ≤1.65 is indicated by four stars (****)) | *** (an EC1.5× between >0.3 μM and ≤1 μM is indicated by three stars (***)) |
| O=c1cc(-c2ccc3nccn3c2)nc2ccc(N3CCNCC3)cn12 [Compound 108, 2-(imidazo[1,2-a]pyridin-6-yl)-7-(piperazin-1-yl)-4H-pyrido[1,2-a]pyrimidin-4-one] | 0.1 to 0.3 µM | *** (a fold increase between >1.35 and ≤1.5 is indicated by three stars (***)) |  |
| Cc1cn2cc(-c3cc(=O)n4cc(N5CCN(C)CC5)ccc4n3)ccc2n1 [Compound 114, 2-(2-methylimidazo[1,2-a]pyridin-6-yl)-7-(4-methylpiperazin-1-yl)-4H-pyrido[1,2-a]pyrimidin-4-one] | 1 to 3 µM | *** (a fold increase between >1.35 and ≤1.5 is indicated by three stars (***)) |  |
| Cc1cn2cc(-c3cc(=O)n4cc(N5CCN[C@@H](C)C5)ccc4n3)ccc2n1 [Compound 115, 2-(2-methylimidazo[1,2-a]pyridin-6-yl)-7-[(3S)-3-methylpiperazin-1-yl]-4H-pyrido[1,2-a]pyrimidin-4-one] | < 0.1 µM | **** (a fold increase between >1.5 and ≤1.65 is indicated by four stars (****)) | **** (an EC1.5x≤0.3 μM is indicated by four stars (****)) |
| Cc1cn2cc(-c3cc(=O)n4cc(N5CCCNCC5)ccc4n3)ccc2n1 [Compound 116, 7-(1,4-diazepan-1-yl)-2-(2-methylimidazo[1,2-a]pyridin-6-yl)-4H-pyrido[1,2-a]pyrimidin-4-one] | 0.1 to 0.3 µM | *** (a fold increase between >1.35 and ≤1.5 is indicated by three stars (***)) | * (An EC1.5× for Smn protein expression between >3 μM and ≤10 μM is indicated by one star (*)) |
